Measurements from patent publication US5223488A, “Oxidized-type glutathione alkyl ester” (Senju Pharmaceutical Company, Ltd., priority 1990, dated 1993).
Read-outs that look alike come from different tables or passages of the source.

System: acetaminophen-induced liver disorder
Assay: Suppressive effect on acetaminophen-induced liver disorder in the rat (s-GOT, s-GPT)
Assay type: in vivo
Conditions: for inhibition at 102 mg/kg: Rattus norvegicus; for inhibition at 102 mg/kg / inhibition rate of s-GOT / inhibition rate of s-GPT: versus 5% gum arabic control; for s-GOT / s-GPT: male Wistar rats, blood 24 h later, mean ± S.E. (n=4-8)
Experimental: Male Wistar rats with a body weight of about 180 g were fasted for 24 hours and orally administered, through a cannula for oral administration, 87-349 mg of oxidized-type glutathione isopropyl ester (hereinafter also referred to as "GSSG isopropyl"), which is one of the compounds of the present invention, 102 mg of reduced-type glutathione isopropyl ester 1/2 H2 SO4.1/2H2 O (87 mg as reduced type glutathione isopropyl ester (hereinafter also referred to as "GSH isopropyl")) or 5% gum arabic solution as a control, respectively. 1 hour later, 400 mg/kg of acetaminophen, a compound which may induce disorders in the liver, was intra peritoneally administered. 24 hours later, the rats were anesthetized with pentobarbital and the blood was collected from the abdominal aorta, and s-GOT and s-GPT were measured to compare the hepatic disorder suppressing effect of GSSG isopropyl with that of GSH isopropyl.

[1] = 102 mg/kg [0.25 mmol/kg] oral 1 h before acetaminophen 400 mg/kg i.p.
[2] = 87 mg/kg [0.125 mmol/kg] oral 1 h before acetaminophen 400 mg/kg i.p.
[3] = 174 mg/kg [0.25 mmol/kg] oral 1 h before acetaminophen 400 mg/kg i.p.
[4] = 349 mg/kg [0.5 mmol/kg] oral 1 h before acetaminophen 400 mg/kg i.p.

**Q.** CC(C)OC(=O)CNC(=O)[C@H](CS)NC(=O)CC[C@H](N)C(=O)O.O=S(=O)(O)O [GSH isopropyl sulfate, γ-L-glutamyl-L-cysteinylglycine isopropyl ester sulfate, reference compound] was tested. Which “elevation of s-GOT and s-GPT” value (102 mg/kg oral, acetaminophen-treated rats) did it give?
**A.** The value was “significantly suppresses”.

**Q.** And the inhibition at 102 mg/kg (102 mg/kg oral, read-out: inhibition rate of s-GOT)?
**A.** The inhibition at 102 mg/kg was 94.5%.

**Q.** And the inhibition at 102 mg/kg (102 mg/kg oral, read-out: inhibition rate of s-GPT)?
**A.** The inhibition at 102 mg/kg was 94.4%.

**Q.** What about the s-GOT [1] of the same compound?
**A.** Its s-GOT is 475 ± 156 IU/1.

**Q.** What about the s-GPT [1] of the same compound?
**A.** Its s-GPT is 253 ± 97 IU/1.

**Q.** Which results are given for “γ-L-GLUTAMYL-L-CYSTEI[…] ESTER DISULFIDE [GSSG isopropyl]”?
**A.** hepatic disorder suppressing effect compared with 102 mg/kg of GSH isopropyl sulfate (87 mg/kg oral, acetaminophen-treated rats): almost equivalent; inhibition rate of s-GOT (87 mg/kg oral): 95.0; inhibition rate of s-GPT (87 mg/kg oral): 94.9; inhibition rate of s-GOT (174 mg/kg oral): 95.9; inhibition rate of s-GPT (174 mg/kg oral): 96.6; inhibition rate of s-GOT (349 mg/kg oral): 98.6; inhibition rate of s-GPT (349 mg/kg oral): 99.1; elevation of s-GOT and s-GPT (87-349 mg/kg oral, acetaminophen-treated rats): significantly suppressed dose-dependently; s-GOT [2]: 430 ± 236 IU/1; s-GPT [2]: 231 ± 152 IU/1; s-GOT [3]: 352 ± 104 IU/1; s-GPT [3]: 154 ± 46 IU/1; s-GOT [4]: 119 ± 11 IU/1; s-GPT [4]: 39 ± 3 IU/1
